Source: patent US5258492A, “LHRH analogues with cytotoxic moieties at the sixth position” (The Administrators of the Tulane Educational Fund, priority 1991, dated 1993)

Columns and labels:
[1] = tested on: human breast carcinoma cells; settings: prior art; cited from earlier work
rat mammary carcinomas = settings: prior art; compared with ovariectomy; cited from earlier work
[2] = tested on: membrane receptors of human prostate cancer; test: Affinity to membrane receptors of human prostate cancer using 125I-labeled [D-Trp6]LHRH; format: binding
Method: (§1) This is determined by using labelled LHRH and [D-Trp^6 ]LHRH. The assay is carried out similarly to that described by T. Kadar et al., Proc. Natl. Acad. Sci. USA, 85, 890-894 (1988).
(§2) *Affinity constants of the peptides for the first receptor class, Ka
(§3) (i.e. for high affinity binding sites) and for the second receptor class,
(§4) Ka2 (i.e. for low affinity binding sites) of human prostate cancer
(§5) and rat Dunning tumor, respectively, as determined by using ^125
(§6) Ilabeled [DTrp^6 ]LHRH.

[3] = tested on: membrane receptors of rat Dunning tumor; test: Affinity to membrane receptors of rat Dunning tumor using 125I-labeled [D-Trp6]LHRH; format: binding
Method: as §1, §2, §3, §4, §5, §6

[4] = target: T1, membrane receptors of pituitary of male rats (Rattus norvegicus, UniProt P30969); test: Binding affinity for membrane receptors of rat pituitary using 125I-labeled [D-Trp6]LHRH; settings: Table 2, high affinity binding sites
T1 construct: from tissue; host or cells: pituitary of male rats (membranes)
T1 sequence (P30969 1-327): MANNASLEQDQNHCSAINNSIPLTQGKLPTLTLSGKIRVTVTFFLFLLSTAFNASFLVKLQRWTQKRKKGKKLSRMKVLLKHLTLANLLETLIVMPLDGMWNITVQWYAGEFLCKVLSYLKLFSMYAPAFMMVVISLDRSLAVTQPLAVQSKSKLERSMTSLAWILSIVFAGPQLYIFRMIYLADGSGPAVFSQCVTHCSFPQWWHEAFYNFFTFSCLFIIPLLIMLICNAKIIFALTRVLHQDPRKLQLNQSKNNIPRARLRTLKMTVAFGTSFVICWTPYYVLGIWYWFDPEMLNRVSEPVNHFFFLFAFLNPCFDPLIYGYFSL
Method: as §1
(§7) Table 2 presents the antiovulatory activity of the claimed compounds having LHRH-inhibiting properties. The inhibitory action was determined in vivo, in 4-day cycling rats as described [A. Corbin and C. W. Beattie, Endocr. Res. Commun., 2, 1-23 (1975)]. Affinities of the claimed compounds to membrane receptors of rat pituitary and human breast cancer cells are also given in Tables 1 and 2 as determined by using [^125 I,D-Trp^6 ]LHRH.
(§8) **Affinity constants of the peptides for the first receptor class (i.e.
(§9) for high affinity binding sites) of pituitary of male rats and human
(§10) breast cancer cells, respectively, as determined by using ^125
as §6
(§11) breast cancer cells, respectively, were determined by using ^125

[5] = target: T2, membrane receptors of human breast cancer cells (Homo sapiens, UniProt P30968); test: Binding affinity for membrane receptors of human breast cancer cells using 125I-labeled [D-Trp6]LHRH; settings: Table 2, high affinity binding sites
T2 construct: endogenous in cells; host or cells: human breast cancer cells (membranes)
T2 sequence (P30968 1-328): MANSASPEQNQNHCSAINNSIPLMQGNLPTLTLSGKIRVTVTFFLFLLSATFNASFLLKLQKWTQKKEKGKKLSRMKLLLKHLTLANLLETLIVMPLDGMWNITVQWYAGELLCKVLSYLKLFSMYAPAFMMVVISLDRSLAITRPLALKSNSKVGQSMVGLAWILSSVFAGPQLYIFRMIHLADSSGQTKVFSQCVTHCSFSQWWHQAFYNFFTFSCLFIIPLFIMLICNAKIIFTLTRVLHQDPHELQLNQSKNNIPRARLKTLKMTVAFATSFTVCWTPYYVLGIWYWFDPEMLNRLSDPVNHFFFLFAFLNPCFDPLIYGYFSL
Method: as §1, §7, §8, §9, §10, §6, §11

4-day cycling rats = test: In vivo antiovulatory activity in 4-day cycling rats; set-up: species or system rat
Method: This activity of the peptides is determined in 4-day-cycling rats as described [A. Corbin and C. W. Beattie, Endocr. Res. Commun., 2, 1-23 (1975)].
as §7
*LHRH-inhibiting potencies were assayed in 4day cyclic rats.

LHRH = settings: prior art; cited from earlier work
[6] = first receptor class (high affinity binding sites)
[7] = second receptor class (low affinity binding sites)

| Compound | Binding affinity, Ka1, for membrane receptors of pituitary [4] | Binding affinity, Ka1, for membrane receptors of cancer cells [5] | activity of Chlorambucil-linked LHRH agonist / antagonist analogue (in words) (LHRH) | further results |
| --- | --- | --- | --- | --- |
| CCNC(=O)[C@@H]1CCCN1C(=O)[C@H](CCCNC(=N)N)NC(=O)[C@H](CC(C)C)NC(=O)[C@@H](COC(C)(C)C)NC(=O)[C@H](Cc1ccc(O)cc1)NC(=O)[C@H](CO)NC(=O)[C@H](Cc1c[nH]c2ccccc12)NC(=O)[C@H](Cc1cnc[nH]1)NC(=O)[C@@H]1CCC(=O)N1 [Example A3] |  |  |  | growth of human breast carcinoma cells containing LHRH binding sites (in words) [1]: inhibited |
| CC(C)C[C@H](NC(=O)[C@@H](COC(C)(C)C)NC(=O)[C@H](Cc1ccc(O)cc1)NC(=O)[C@H](CO)NC(=O)[C@H](Cc1c[nH]c2ccccc12)NC(=O)[C@H](Cc1cnc[nH]1)NC(=O)[C@@H]1CCC(=O)N1)C(=O)N[C@@H](CCCNC(=N)N)C(=O)N1CCC[C@H]1C(=O)NNC(N)=O [Example A4] |  |  |  | effectiveness in treatment of rat mammary carcinomas (in words) (rat mammary carcinomas): as effective as ovariectomy |
| CC(C)C[C@H](NC(=O)[C@@H](Cc1c[nH]c2ccccc12)NC(=O)[C@H](Cc1ccc(O)cc1)NC(=O)[C@H](CO)NC(=O)[C@H](Cc1c[nH]c2ccccc12)NC(=O)[C@H](Cc1c[nH]cn1)NC(=O)[C@@H]1CCC(=O)N1)C(=O)N[C@@H](CCCNC(=N)N)C(=O)N1CCC[C@H]1C(=O)NCC(N)=O [[D-Trp^6]-LHRH, [D-Trp^6]LHRH, reference compound] |  |  |  | Human prostate cancer Ka1 [2, 6]: 0.04 nM⁻¹; Dunning tumor Ka1 [3, 6]: 1.87 nM⁻¹ |
| Ac-D-Nal(2)-D-Phe(4Cl)-D-Trp-Ser-Arg-D-Mel-Leu-Arg-Pro-D-Ala-NH2 [IIA] |  |  |  | Human prostate cancer Ka2 [2, 7]: 0.97 µM⁻¹; Dunning tumor Ka2 [3, 7]: 25.1 µM⁻¹ |
| [Chlorambucil-D-Leu^2,D-Leu^3,D-Ala^6 ]LHRH (2-10) |  |  | moderate activities |  |
| [Chlorambucil-D-Phe^1,D-Phe^2,D-Trp^3,6 ]LHRH |  |  | practically inactive |  |
| [D-Lys(Chlorambucil)^6 ] LHRH |  |  | moderate activities |  |

More lines, main results first:

| Binding affinity, Ka1, for membrane receptors of pituitary [4] | Binding affinity, Ka1, for membrane receptors of cancer cells [5] | Compound | activity of Chlorambucil-linked LHRH agonist / antagonist analogue (in words) (LHRH) | further results |
| --- | --- | --- | --- | --- |
| 2.901 nM⁻¹ | 1.337 nM⁻¹ | Ac-D-Nal(2)-D-Phe(4Cl)-D-Trp-Ser-Arg-D-Lys[(Cu^++)(POLP)2 (DL-A2 pr)]-Leu-Arg-Pro-D-Ala-NH2 [Example XXII] |  | % Blockade of ovulation (4-day cycling rats; Dose 10 μg/rat): 60% |
| 9.183 nM⁻¹ | 4.951 nM⁻¹ | Ac-D-Nal(2)-D-Phe(4Cl)-D-Trp-Ser-Arg-D-Lys[(Cu^++)(SAL)2 (DL-A2 pr)]-Leu-Arg-Pro-D-Ala-NH2 [XII] |  | % Blockade of ovulation (4-day cycling rats; Dose 3 μg/rat): 20% |
| 8.676 nM⁻¹ | 4.418 nM⁻¹ | Ac-D-Nal(2)-D-Phe(4Cl)-D-Trp-Ser-Arg-D-Lys[(Ni^++)(SAL)2 (DL-A2 pr)]-Leu-Arg-Pro-D-Ala-NH2 [Example XV] |  | % Blockade of ovulation (4-day cycling rats; Dose 3 μg/rat): 20% |
